In PMC7411887, “New Paracyclophanylthiazoles with Anti-Leukemia Activity: Design, Synthesis, Molecular Docking, and Mechanistic Studies” (Molecules, 2020):
Where two headings read alike, the source gives them in different places.

What was measured:
HOP-92 = assay: NCI five-dose assay; assay type: cell-based; settings: Non-Small-Cell Lung Cancer HOP-92
NCI-H460 = assay: NCI five-dose assay; assay type: cell-based; settings: Non-Small-Cell Lung Cancer NCI-H460
KM12 = assay: NCI five-dose assay; assay type: cell-based; settings: Colon Cancer KM12
MALME-3M = assay: NCI five-dose assay; assay type: cell-based; settings: Homo sapiens, Melanoma MALME-3M
UACC-257 = assay: NCI five-dose assay; assay type: cell-based; settings: Melanoma UACC-257
UACC-62 = assay: NCI five-dose assay; assay type: cell-based; settings: Melanoma UACC-62
IGROV1 = assay: NCI five-dose assay; assay type: cell-based; settings: Ovarian Cancer IGROV1
OVCAR-5 = assay: NCI five-dose assay; assay type: cell-based; settings: Ovarian Cancer OVCAR-5
OVCAR-8 = assay: NCI five-dose assay; assay type: cell-based; settings: Ovarian Cancer OVCAR-8
SK-OV-3 = assay: NCI five-dose assay; assay type: cell-based; settings: Ovarian Cancer SK-OV-3
A498 = assay: NCI five-dose assay; assay type: cell-based; settings: Renal Cancer A498
MCF7 = assay: NCI five-dose assay; assay type: cell-based, human; settings: Breast Cancer MCF7
MDA-MB-231/ATCC = assay: NCI five-dose assay; assay type: cell-based; settings: Breast Cancer MDA-MB-231/ATCC
BT-549 = assay: NCI five-dose assay; assay type: cell-based, human; settings: Breast Cancer BT-549
Breast Cancer subpanel = assay: NCI five-dose assay, subpanel; assay type: cell-based, human; settings: for GI50: Homo sapiens
Protocol: (§1) The outcomes were used to form log concentration vs. percentage growth inhibition curves and three response parameters (GI50, total growth inhibition (TGI), and LC50) were calculated for each cell line (Table 2).
(§2) The criterion for selectivity of a compound depends upon the ratio obtained by dividing the full-panel MID (the average sensitivity of all cell lines toward the test agent) (μM) by the individual subpanel MIDs (μM).

CNS Cancer subpanel = assay: NCI five-dose assay, subpanel; assay type: cell-based, human
Protocol: as §1, §2

Colon Cancer subpanel = assay: NCI five-dose assay, subpanel; assay type: cell-based, human; settings: for GI50: Homo sapiens
Protocol: as §1, §2

Leukemia subpanel = assay: NCI five-dose assay, subpanel; assay type: cell-based, human; settings: for GI50: Homo sapiens
Protocol: as §1, §2

Melanoma subpanel = assay: NCI five-dose assay, subpanel; assay type: cell-based, human
Protocol: as §1, §2

[1] = tested on: Non-Small-Cell Lung Cancer subpanel; assay: NCI five-dose assay, subpanel; assay type: cell-based, human
Protocol: as §1, §2

Ovarian Cancer subpanel = assay: NCI five-dose assay, subpanel; assay type: cell-based, human; settings: for GI50: Homo sapiens
Protocol: as §1, §2

Prostate Cancer subpanel = assay: NCI five-dose assay, subpanel; assay type: cell-based, human
Protocol: as §1, §2

Renal Cancer subpanel = assay: NCI five-dose assay, subpanel; assay type: cell-based, human
Protocol: as §1, §2

[2] = tested on: P-glycoprotein (Pgp) in MDR-SR Leukemia cell line; assay: Multidrug resistance assay (Pgp ELISA); assay type: cell-based, human; settings: relative to control
OVCAR-3 = assay: NCI five-dose assay
MDA-MB-468 = assay: NCI five-dose assay
[3] = Homo sapiens, read-out: GI50 Concentration/Cell Line
[4] = Homo sapiens, read-out: LC50 (the source's name)
[5] = Non-Small-Cell Lung Cancer subpanel

## COC(=O)C=C1SC(=NNC(=O)c2cc3ccc2CCc2ccc(cc2)CC3)N(c2ccccc2)C1=O [Compound 3a]
HOP-92; [3]
  GI50: 1.91 µM
HOP-92; [4]
  CC50: > 100 µM
HOP-92
  TGI Concentration/Cell Line: 9.14 µM
NCI-H460; Homo sapiens
  LC50 (50% lethal concentration): 8.82 µM
NCI-H460; [3]
  GI50: 2.08 µM
NCI-H460
  TGI Concentration/Cell Line: 4.29 µM
KM12
  TGI Concentration/Cell Line: 4.15 µM
KM12; [3]
  GI50: 2.03 µM
KM12; [4]
  CC50: 8.51 µM
MALME-3M; read-out: GI50 Concentration/Cell Line
  GI50: 3.27 µM
MALME-3M; read-out: LC50 (the source's name)
  CC50: > 100 µM
UACC-257; Homo sapiens
  LC50: > 100 µM
UACC-257; [3]
  GI50: 5.14 µM
UACC-257
  TGI Concentration/Cell Line: >100 µM
UACC-62; [3]
  GI50: 1.96 µM
UACC-62; [4]
  CC50: 9.02 µM
UACC-62
  TGI Concentration/Cell Line: 4.21 µM
IGROV1; Homo sapiens, IGROV-1
  LC50 (NCI lethal concentration, 50% net cell kill): 6.44 µM
IGROV1; Homo sapiens, IGROV-1, read-out: GI50 Concentration/Cell Line
  GI50: 1.66 µM
IGROV1
  TGI Concentration/Cell Line: 3.27 µM
OVCAR-5; Homo sapiens
  LC50 (50% lethal concentration): 7.68 µM
OVCAR-5; [3]
  GI50: 1.92 µM
OVCAR-5
  TGI Concentration/Cell Line: 3.84 µM
OVCAR-8; [3]
  GI50: 3.08 µM
OVCAR-8; [4]
  CC50: > 100 µM
OVCAR-8
  TGI Concentration/Cell Line: >100 µM
SK-OV-3; Homo sapiens
  LC50 (NCI lethal concentration, 50% cell kill): > 100 µM
SK-OV-3; [3]
  GI50: 3.55 µM
SK-OV-3
  TGI Concentration/Cell Line: 7.53 µM
A498; [4]
  CC50: > 100 µM
A498
  TGI Concentration/Cell Line: 8.36 µM
MCF7
  TGI Concentration/Cell Line: 4.95 µM
MCF7; [3]
  GI50: 1.87 µM
MDA-MB-231/ATCC
  TGI Concentration/Cell Line: 7.46 µM
MDA-MB-231/ATCC; Homo sapiens
  LC50: > 100 µM
MDA-MB-231/ATCC; [3]
  GI50: 2.63 µM
BT-549
  TGI Concentration/Cell Line: 5.35 µM
BT-549; [3]
  GI50: 2.22 µM
Breast Cancer subpanel; Breast Cancer subpanel
  GI50 Selectivity Ratio (MID^a: MID^b): 1.05
  TGI Selectivity Ratio (MID^c: MID^d): 0.87
Breast Cancer subpanel; Breast Cancer subpanel average
  TGI Subpanel MID^d: 24.3 µM
Breast Cancer subpanel; Breast Cancer subpanel average, read-out: GI50 Subpanel MID^b
  GI50: 2.27 µM
Breast Cancer subpanel; breast cancer subpanel, read-out: GI50 values range, subpanel
  GI50: 1.54 to 1.87 µM
CNS Cancer subpanel; CNS Cancer subpanel
  GI50 Selectivity Ratio (MID^a: MID^b): 0.88
  TGI Selectivity Ratio (MID^c: MID^d): 1.08
CNS Cancer subpanel; CNS Cancer subpanel average
  TGI Subpanel MID^d: 19.5 µM
CNS Cancer subpanel; Homo sapiens, CNS Cancer subpanel average, read-out: GI50 Subpanel MID^b
  GI50: 2.71 µM
Colon Cancer subpanel; Colon Cancer subpanel
  GI50 Selectivity Ratio (MID^a: MID^b): 1.24
  TGI Selectivity Ratio (MID^c: MID^d): 5.34
Colon Cancer subpanel; Colon Cancer subpanel average
  TGI Subpanel MID^d: 3.95 µM
Colon Cancer subpanel; Colon Cancer subpanel average, read-out: GI50 Subpanel MID^b
  GI50: 1.91 µM
Colon Cancer subpanel; colon cancer subpanel, read-out: GI50 values range, subpanel
  GI50: 1.78 to 2.13 µM
Leukemia subpanel; Leukemia subpanel average, read-out: GI50 Subpanel MID^b
  GI50: 2.72 µM
Leukemia subpanel; leukemia subpanel, read-out: GI50 values range, subpanel
  GI50: 2.15 to 3.15 µM
Leukemia subpanel; Leukemia subpanel
  GI50 Selectivity Ratio (MID^a: MID^b): 0.88
Leukemia subpanel; Leukemia subpanel average
  TGI Subpanel MID^d: 81.1 µM
Melanoma subpanel; Homo sapiens, Melanoma subpanel average, read-out: GI50 Subpanel MID^b
  GI50: 3.77 µM
Melanoma subpanel; Melanoma subpanel
  GI50 Selectivity Ratio (MID^a: MID^b): 0.63
  TGI Selectivity Ratio (MID^c: MID^d): 0.58
Melanoma subpanel; Melanoma subpanel average
  TGI Subpanel MID^d: 36.5 µM
[1]; Homo sapiens, Non-Small-Cell Lung Cancer subpanel average, read-out: GI50 Subpanel MID^b
  GI50: 2.74 µM
[1]; [5]
  GI50 Selectivity Ratio (MID^a: MID^b): 0.87
  TGI Selectivity Ratio (MID^c: MID^d): 1.31
[1]; Non-Small-Cell Lung Cancer subpanel average
  TGI Subpanel MID^d: 16.1 µM
Ovarian Cancer subpanel; Ovarian Cancer subpanel average, read-out: GI50 Subpanel MID^b
  GI50: 2.59 µM
Ovarian Cancer subpanel; ovarian cancer subpanel, read-out: GI50 values range, subpanel
  GI50: 1.66 to 3.55 µM
Ovarian Cancer subpanel; Ovarian Cancer subpanel
  GI50 Selectivity Ratio (MID^a: MID^b): 0.92
  TGI Selectivity Ratio (MID^c: MID^d): 1.14
Ovarian Cancer subpanel; Ovarian Cancer subpanel average
  TGI Subpanel MID^d: 18.5 µM
Prostate Cancer subpanel; Homo sapiens, Prostate Cancer subpanel average, read-out: GI50 Subpanel MID^b
  GI50: 3.41 µM
Prostate Cancer subpanel; Prostate Cancer subpanel
  GI50 Selectivity Ratio (MID^a: MID^b): 0.69
  TGI Selectivity Ratio (MID^c: MID^d): 5.89
Prostate Cancer subpanel; Prostate Cancer subpanel average
  TGI Subpanel MID^d: 3.58 µM
Renal Cancer subpanel; Homo sapiens, Renal Cancer subpanel average, read-out: GI50 Subpanel MID^b
  GI50: 1.86 µM
Renal Cancer subpanel; Renal Cancer subpanel
  GI50 Selectivity Ratio (MID^a: MID^b): 1.28
  TGI Selectivity Ratio (MID^c: MID^d): 1.27
Renal Cancer subpanel; Renal Cancer subpanel average
  TGI Subpanel MID^d: 16.6 µM
[2]
  Pgp-Mediated MDR Fold Change: 1.15 fold
OVCAR-3; Homo sapiens, OVCAR-3, read-out: GI50 Concentration/Cell Line
  GI50: 1.8 µM
OVCAR-3; Homo sapiens, OVCAR-3, read-out: LC50
  CC50: 7.23 µM
OVCAR-3; Ovarian Cancer OVCAR-3
  TGI Concentration/Cell Line: 3.61 µM
MDA-MB-468; Breast Cancer MDA-MB-468
  TGI Concentration/Cell Line: 3.74 µM
MDA-MB-468; Homo sapiens, MDA-MB-468, read-out: GI50 Concentration/Cell Line
  GI50: 1.84 µM
MDA-MB-468; Homo sapiens, MDA-MB-468, read-out: LC50
  CC50: 7.61 µM
